Laboratory results published in patent publication US20230391768A2, “IMIDAZOPYRIDINE DERIVATIVES AND AZA-IMIDAZOPYRIDINE DERIVATIVES AS JANUS KINASE 2 INHIBITORS AND USES THEREOF” (Dana-Farber Cancer Institute, Inc., priority 2018, published 2023).

How the values were obtained:
Assay in all cases: KINOMEscan
Assay type in all cases: binding
Conditions in all cases: read-out: percent of control
[1] = biological target: ABL1(T315I)-nonphosphorylated (Homo sapiens (Human), UniProt P00519, T315I)
Method: (§1) In vitro profiling of Compound I-2 (1 μM) was performed using the DiscoveRx KINOMEscan® platform.

[2] = biological target: ARK5 (Homo sapiens (Human), UniProt O60285)
Chain of ARK5 (O60285 whole entry): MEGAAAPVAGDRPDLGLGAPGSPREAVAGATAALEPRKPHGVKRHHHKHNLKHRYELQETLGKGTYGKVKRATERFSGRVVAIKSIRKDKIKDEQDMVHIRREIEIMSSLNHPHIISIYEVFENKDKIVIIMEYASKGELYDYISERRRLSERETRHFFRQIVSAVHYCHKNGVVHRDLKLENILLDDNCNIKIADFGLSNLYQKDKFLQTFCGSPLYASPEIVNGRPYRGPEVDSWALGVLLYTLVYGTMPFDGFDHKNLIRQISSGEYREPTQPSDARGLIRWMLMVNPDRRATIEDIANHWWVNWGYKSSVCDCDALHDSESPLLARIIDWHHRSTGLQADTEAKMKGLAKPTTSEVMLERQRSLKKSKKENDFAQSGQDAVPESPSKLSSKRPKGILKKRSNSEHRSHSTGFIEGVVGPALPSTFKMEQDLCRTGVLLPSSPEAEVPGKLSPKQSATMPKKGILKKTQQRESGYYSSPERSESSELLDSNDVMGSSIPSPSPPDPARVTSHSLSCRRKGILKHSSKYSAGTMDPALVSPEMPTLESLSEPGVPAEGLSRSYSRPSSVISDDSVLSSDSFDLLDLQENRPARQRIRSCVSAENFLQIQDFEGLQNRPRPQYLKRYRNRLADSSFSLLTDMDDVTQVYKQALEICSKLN
Method: as §1

[3] = biological target: CDK4-cyclinD1 (Homo sapiens (Human), UniProt P11802)
Method: as §1

[4] = biological target: CDK5 (Homo sapiens (Human), UniProt Q00535)
Chain of CDK5 (Q00535 whole entry): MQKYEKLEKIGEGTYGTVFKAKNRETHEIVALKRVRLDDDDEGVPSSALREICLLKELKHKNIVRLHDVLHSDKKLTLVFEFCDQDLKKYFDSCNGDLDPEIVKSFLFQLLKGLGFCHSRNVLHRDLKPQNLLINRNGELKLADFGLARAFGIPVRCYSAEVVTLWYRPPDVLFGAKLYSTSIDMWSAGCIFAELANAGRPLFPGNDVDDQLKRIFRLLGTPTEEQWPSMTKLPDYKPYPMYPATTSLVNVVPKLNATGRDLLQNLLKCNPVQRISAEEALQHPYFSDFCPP
Method: as §1

[5] = biological target: CDK9 (Homo sapiens (Human), UniProt P50750)
Method: as §1

[6] = biological target: CDKL1 (Homo sapiens (Human), UniProt Q00532)
Chain of CDKL1 (Q00532 whole entry): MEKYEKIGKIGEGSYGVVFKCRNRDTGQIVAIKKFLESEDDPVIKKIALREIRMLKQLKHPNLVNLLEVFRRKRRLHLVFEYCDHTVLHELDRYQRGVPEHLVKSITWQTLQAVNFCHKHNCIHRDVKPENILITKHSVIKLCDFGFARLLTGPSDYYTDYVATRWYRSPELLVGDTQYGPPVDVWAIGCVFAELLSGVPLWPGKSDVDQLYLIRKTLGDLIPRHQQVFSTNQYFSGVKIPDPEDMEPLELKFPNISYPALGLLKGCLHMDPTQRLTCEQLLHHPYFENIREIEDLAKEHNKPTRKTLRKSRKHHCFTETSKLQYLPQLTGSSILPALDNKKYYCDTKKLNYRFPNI
Method: as §1

[7] = biological target: CSNK1D (Homo sapiens (Human), UniProt P48730)
Chain of CSNK1D (P48730 whole entry): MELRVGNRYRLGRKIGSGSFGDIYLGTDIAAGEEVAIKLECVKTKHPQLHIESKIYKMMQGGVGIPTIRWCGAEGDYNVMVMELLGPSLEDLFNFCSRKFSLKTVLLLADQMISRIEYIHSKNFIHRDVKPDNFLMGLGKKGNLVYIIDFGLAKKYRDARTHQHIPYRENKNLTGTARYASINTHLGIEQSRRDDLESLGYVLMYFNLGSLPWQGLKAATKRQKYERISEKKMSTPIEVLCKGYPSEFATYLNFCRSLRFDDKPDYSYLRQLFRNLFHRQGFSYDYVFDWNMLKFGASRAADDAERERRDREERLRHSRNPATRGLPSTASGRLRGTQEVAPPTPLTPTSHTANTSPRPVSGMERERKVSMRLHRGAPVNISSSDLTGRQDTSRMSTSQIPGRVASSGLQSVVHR
Method: as §1

[8] = biological target: CSNK1G1 (Homo sapiens (Human), UniProt Q9HCP0)
Method: as §1

[9] = biological target: DAPK3 (Homo sapiens (Human), UniProt O43293)
Method: as §1

[10] = biological target: EPHA7 (Homo sapiens (Human), UniProt Q15375)
Method: as §1

[11] = biological target: EPHB3 (Homo sapiens (Human), UniProt P54753)
Method: as §1

[12] = biological target: ERK5 (Homo sapiens (Human), UniProt Q13164)
Method: as §1

[13] = biological target: FYN (Homo sapiens (Human), UniProt P06241)
Method: as §1

[14] = biological target: KIT (Homo sapiens (Human), UniProt P10721)
Chain of KIT (P10721 26-976): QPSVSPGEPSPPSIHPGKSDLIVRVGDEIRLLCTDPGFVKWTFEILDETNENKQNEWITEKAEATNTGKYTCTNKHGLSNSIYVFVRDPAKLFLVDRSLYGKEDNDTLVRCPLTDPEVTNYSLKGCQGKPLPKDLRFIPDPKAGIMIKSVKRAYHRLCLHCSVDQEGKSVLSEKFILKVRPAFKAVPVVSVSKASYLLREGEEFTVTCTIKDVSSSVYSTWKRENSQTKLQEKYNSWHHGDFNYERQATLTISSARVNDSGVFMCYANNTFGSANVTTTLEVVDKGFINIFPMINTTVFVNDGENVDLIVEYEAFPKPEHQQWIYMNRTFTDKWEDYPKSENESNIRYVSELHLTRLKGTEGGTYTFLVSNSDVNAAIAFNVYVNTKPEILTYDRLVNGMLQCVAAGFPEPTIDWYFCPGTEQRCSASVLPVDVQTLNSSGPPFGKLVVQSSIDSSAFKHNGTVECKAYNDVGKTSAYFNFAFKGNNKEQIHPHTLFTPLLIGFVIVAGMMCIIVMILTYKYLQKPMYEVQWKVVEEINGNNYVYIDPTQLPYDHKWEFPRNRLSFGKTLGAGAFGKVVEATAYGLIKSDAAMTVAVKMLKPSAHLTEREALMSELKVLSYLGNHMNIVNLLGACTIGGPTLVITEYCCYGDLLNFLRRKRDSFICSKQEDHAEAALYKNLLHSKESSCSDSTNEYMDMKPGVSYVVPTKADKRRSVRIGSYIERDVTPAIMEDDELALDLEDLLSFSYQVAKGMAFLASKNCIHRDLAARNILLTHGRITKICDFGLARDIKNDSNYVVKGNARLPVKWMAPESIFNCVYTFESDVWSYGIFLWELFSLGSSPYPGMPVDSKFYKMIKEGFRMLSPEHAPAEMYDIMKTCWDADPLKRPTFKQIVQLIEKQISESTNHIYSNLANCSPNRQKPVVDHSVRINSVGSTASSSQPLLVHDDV
Method: as §1

[15] = biological target: KIT(D816H) (Homo sapiens (Human), UniProt P10721, D816H)
Chain of KIT(D816H) (P10721 26-976 D816H): as the sequence (P10721 26-976) above, with D791H counted along it
Method: as §1

[16] = biological target: KIT(D816V) (Homo sapiens (Human), UniProt P10721, D816V)
Chain of KIT(D816V) (P10721 26-976 D816V): as the sequence (P10721 26-976) above, with D791V counted along it
Method: as §1

[17] = biological target: KIT(V559D) (Homo sapiens (Human), UniProt P10721, V559D)
Method: as §1

[18] = biological target: LKB1 (Homo sapiens (Human), UniProt Q15831)
Method: as §1

[19] = biological target: MAK (Homo sapiens (Human), UniProt P20794)
Method: as §1

[20] = biological target: MAP4K2 (Homo sapiens (Human), UniProt Q12851)
Method: as §1

[21] = biological target: MARK4 (Homo sapiens (Human), UniProt Q96L34)
Method: as §1

[22] = biological target: MEK5 (Homo sapiens (Human), UniProt Q13163)
Method: as §1

[23] = biological target: MINK (Homo sapiens (Human), UniProt Q8N4C8)
Method: as §1

[24] = biological target: MKNK1 (Homo sapiens (Human), UniProt Q9BUB5)
Method: as §1

[25] = biological target: MST2 (Homo sapiens (Human), UniProt Q13188)
Method: as §1

[26] = biological target: MTOR (Homo sapiens (Human), UniProt P42345)
Method: as §1

[27] = biological target: PAK1 (Homo sapiens (Human), UniProt Q13153)
Method: as §1

[28] = biological target: PCTK3 (Homo sapiens (Human), UniProt Q07002)
Chain of PCTK3 (Q07002 whole entry): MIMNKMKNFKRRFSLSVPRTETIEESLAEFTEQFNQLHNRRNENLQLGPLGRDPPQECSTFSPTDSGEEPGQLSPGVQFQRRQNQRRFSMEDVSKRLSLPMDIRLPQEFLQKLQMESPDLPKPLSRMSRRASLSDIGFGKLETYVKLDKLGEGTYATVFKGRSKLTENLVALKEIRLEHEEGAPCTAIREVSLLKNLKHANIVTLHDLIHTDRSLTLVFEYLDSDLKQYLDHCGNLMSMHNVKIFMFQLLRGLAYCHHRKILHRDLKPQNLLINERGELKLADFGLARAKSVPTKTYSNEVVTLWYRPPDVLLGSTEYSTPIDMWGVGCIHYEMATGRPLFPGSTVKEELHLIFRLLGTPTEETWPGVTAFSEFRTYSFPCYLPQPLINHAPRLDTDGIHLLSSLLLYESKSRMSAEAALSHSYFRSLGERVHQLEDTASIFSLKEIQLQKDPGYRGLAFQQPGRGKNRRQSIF
Method: as §1

[29] = biological target: PHKG2 (Homo sapiens (Human), UniProt P15735)
Chain of PHKG2 (P15735 whole entry): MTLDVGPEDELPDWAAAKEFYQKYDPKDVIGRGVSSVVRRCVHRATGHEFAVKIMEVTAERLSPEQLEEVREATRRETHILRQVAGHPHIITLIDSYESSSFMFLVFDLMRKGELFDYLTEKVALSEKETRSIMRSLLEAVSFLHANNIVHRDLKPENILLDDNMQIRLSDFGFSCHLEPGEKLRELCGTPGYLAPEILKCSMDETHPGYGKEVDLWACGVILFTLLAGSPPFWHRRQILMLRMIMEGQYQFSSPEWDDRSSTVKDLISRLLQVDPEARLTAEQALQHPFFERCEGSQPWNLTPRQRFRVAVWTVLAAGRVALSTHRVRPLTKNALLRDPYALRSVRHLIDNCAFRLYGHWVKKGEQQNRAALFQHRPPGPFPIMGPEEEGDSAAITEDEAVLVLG
Method: as §1

[30] = biological target: PIK3C2G (Homo sapiens (Human), UniProt O75747)
Method: as §1

[31] = biological target: PIK3CA(E545K) (Homo sapiens (Human), UniProt P42336, E545K)
Chain of PIK3CA(E545K) (P42336 whole entry E545K): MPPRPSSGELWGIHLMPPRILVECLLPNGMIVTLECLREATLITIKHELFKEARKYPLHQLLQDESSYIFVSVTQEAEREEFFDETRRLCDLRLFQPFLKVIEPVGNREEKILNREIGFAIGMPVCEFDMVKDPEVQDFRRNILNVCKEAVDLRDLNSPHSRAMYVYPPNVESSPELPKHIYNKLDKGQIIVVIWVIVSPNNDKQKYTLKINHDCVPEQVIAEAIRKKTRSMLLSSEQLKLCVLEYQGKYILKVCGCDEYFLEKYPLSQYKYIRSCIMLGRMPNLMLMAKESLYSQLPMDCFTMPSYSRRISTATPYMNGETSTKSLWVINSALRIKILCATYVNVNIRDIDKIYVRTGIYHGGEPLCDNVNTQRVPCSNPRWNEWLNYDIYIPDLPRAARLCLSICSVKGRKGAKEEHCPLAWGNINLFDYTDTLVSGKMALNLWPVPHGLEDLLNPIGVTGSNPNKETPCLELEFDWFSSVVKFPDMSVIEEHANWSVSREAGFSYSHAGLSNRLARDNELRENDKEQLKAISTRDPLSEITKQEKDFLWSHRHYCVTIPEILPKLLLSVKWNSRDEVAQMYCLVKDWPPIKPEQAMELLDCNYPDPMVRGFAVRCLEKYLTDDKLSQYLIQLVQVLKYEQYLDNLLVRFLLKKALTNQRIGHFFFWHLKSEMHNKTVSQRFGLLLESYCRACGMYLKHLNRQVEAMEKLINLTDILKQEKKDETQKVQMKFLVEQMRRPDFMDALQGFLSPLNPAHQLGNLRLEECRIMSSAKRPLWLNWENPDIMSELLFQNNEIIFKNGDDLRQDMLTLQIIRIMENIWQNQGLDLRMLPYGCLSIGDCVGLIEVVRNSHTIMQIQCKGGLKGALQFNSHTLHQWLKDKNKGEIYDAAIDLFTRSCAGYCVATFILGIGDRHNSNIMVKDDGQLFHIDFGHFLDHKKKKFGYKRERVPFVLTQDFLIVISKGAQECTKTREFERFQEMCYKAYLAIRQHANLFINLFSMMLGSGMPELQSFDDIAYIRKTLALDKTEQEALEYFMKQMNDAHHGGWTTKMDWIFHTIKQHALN
Method: as §1

[32] = biological target: PRKD1 (Homo sapiens (Human), UniProt Q15139)
Method: as §1

[33] = biological target: RIPK1 (Homo sapiens (Human), UniProt Q13546)
Method: as §1

[34] = biological target: RSK3 (Kin.Dom.1-N-terminal) (Homo sapiens (Human), UniProt Q15349)
Method: as §1

[35] = biological target: SLK (Homo sapiens (Human), UniProt Q9H2G2)
Method: as §1

[36] = biological target: SRPK3 (Homo sapiens (Human), UniProt Q9UPE1)
Method: as §1

[37] = biological target: STK16 (Homo sapiens (Human), UniProt O75716)
Chain of STK16 (O75716 whole entry): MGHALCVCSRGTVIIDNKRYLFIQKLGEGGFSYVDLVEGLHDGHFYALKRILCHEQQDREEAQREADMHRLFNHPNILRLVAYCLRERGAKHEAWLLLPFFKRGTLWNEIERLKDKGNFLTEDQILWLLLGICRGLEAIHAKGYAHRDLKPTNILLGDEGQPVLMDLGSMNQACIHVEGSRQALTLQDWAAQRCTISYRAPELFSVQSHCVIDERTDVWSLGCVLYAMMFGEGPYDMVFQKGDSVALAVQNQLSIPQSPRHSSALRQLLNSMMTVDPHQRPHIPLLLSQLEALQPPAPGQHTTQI
Method: as §1

[38] = biological target: SYK (Homo sapiens (Human), UniProt P43405)
Method: as §1

[39] = biological target: TEC (Homo sapiens (Human), UniProt P42680)
Method: as §1

SMILES | remaining binding at 1 µM [1] [%] | remaining binding at 1 µM [2] [%] | remaining binding at 1 µM [3] [%] | remaining binding at 1 µM [4] [%] | remaining binding at 1 µM [5] [%] | remaining binding at 1 µM [6] [%] | remaining binding at 1 µM [7] [%] | remaining binding at 1 µM [8] [%] | remaining binding at 1 µM [9] [%] | remaining binding at 1 µM [10] [%] | remaining binding at 1 µM [11] [%] | remaining binding at 1 µM [12] [%] | remaining binding at 1 µM [13] [%] | remaining binding at 1 µM [14] [%] | remaining binding at 1 µM [15] [%] | remaining binding at 1 µM [16] [%] | remaining binding at 1 µM [17] [%] | remaining binding at 1 µM [18] [%] | remaining binding at 1 µM [19] [%] | remaining binding at 1 µM [20] [%] | other results
CCN1CCN(Cc2cc(NC(=O)c3ccc(C)c(-c4ccc5nc(NC(=O)C6CC6)cn5c4)c3)cc(C(F)(F)F)c2)CC1 [Compound I-6, 3-(2-(cyclopropanecarboxamido)imidazo[1,2-a]pyridin-6-yl)-N-(3-((4-ethylpiperazin-1-yl)methyl)-5-(trifluoromethyl)phenyl)-4-methylbenzamide] | 0 | 100 | 17 | 52 | 13 | 77 | 100 | 96 | 100 | 2 | 35 | 92 | 3.7 | 0 | 29 | 22 | 0.05 | 100 | 22 | 0.2 | remaining binding at 1 µM [21]: 80%; remaining binding at 1 µM [22]: 17%; remaining binding at 1 µM [23]: 2.4%; remaining binding at 1 µM [24]: 91%; remaining binding at 1 µM [25]: 97%; remaining binding at 1 µM [26]: 91%; remaining binding at 1 µM [27]: 78%; remaining binding at 1 µM [28]: 27%; remaining binding at 1 µM [29]: 98%; remaining binding at 1 µM [30]: 95%; remaining binding at 1 µM [31]: 93%; remaining binding at 1 µM [32]: 87%; remaining binding at 1 µM [33]: 0.75%; remaining binding at 1 µM [34]: 95%; remaining binding at 1 µM [35]: 2.4%; remaining binding at 1 µM [36]: 83%; remaining binding at 1 µM [37]: 95%; remaining binding at 1 µM [38]: 0.65%; remaining binding at 1 µM [39]: 100%
CCN1CCN(Cc2cc(NC(=O)c3ccc(C)c(-c4ccc5nc(NC(=O)C6CC6)cn5n4)c3)cc(C(F)(F)F)c2)CC1 [Compound I-2, 3-(2-(cyclopropanecarboxamido)imidazo[1,2-b]pyridazin-6-yl)-N-(3-((4-ethylpiperazin-1-yl)methyl)-5-(trifluoromethyl)phenyl)-4-methylbenzamide] | 0 | 94 | 19 | 6.6 | 14 | 40 | 100 | 100 | 93 | 3.3 | 30 | 95 | 4.1 | 0 | 38 | 32 | 0 | 73 | 11 | 0.05 | remaining binding at 1 µM [21]: 84%; remaining binding at 1 µM [22]: 21%; remaining binding at 1 µM [23]: 0.6%; remaining binding at 1 µM [24]: 76%; remaining binding at 1 µM [25]: 50%; remaining binding at 1 µM [26]: 78%; remaining binding at 1 µM [27]: 81%; remaining binding at 1 µM [28]: 4.8%; remaining binding at 1 µM [29]: 93%; remaining binding at 1 µM [30]: 92%; remaining binding at 1 µM [31]: 99%; remaining binding at 1 µM [32]: 93%; remaining binding at 1 µM [33]: 0.45%; remaining binding at 1 µM [34]: 100%; remaining binding at 1 µM [35]: 1.6%; remaining binding at 1 µM [36]: 92%; remaining binding at 1 µM [37]: 90%; remaining binding at 1 µM [38]: 1.9%; remaining binding at 1 µM [39]: 100%
